The record followed here is patent US20090124680A1, “USE OF PRODRUG COMPOSITION CONTAINING NAPHTHOQUINONE-BASED COMPOUND FOR MANUFACTURE OF MEDICAMENT FOR TREATMENT OR PREVENTION OF DISEASES INVOLVING METABOLIC SYNDROME” (Mazence Inc., priority 2007, published 2009).

Assay [1] in a line: Weight loss effects in obese mice: body weight, body weight gain and food intake. To be noted: high-fat diet mice; oral, 28 days; Example 14 195 mg/kg, Example 5 65 mg/kg; compared to control group; FIGS. 1 and 2. The class given is in vivo, C57BL/6 male mice. The method, then: (§1) 4-week-old C57BL/6 male mice were purchased from Orient BIO Inc. (Korea). Animals were raised for 10 weeks in a breeding room maintained at a temperature of 23° C., 55% humidity, illumination of 300 to 500 lux, a 12-h light/dark (L/D) cycle, and ventilation of 10 to 18 times/hr. Experiments included animals weighing […] or higher. Animals were fed ad libitum a high-fat diet (45 kcal % from fat, D12451, Research Diet) and tap water as drinking water.
(§2) Each group of animals was administered 195 mg/kg of the prodrug compound of Example 14 (hereinafter often simply referred to as “A31”) and 65 mg/kg of the prodrug compound of Example 5 (hereinafter often simply referred to as “A32”) for 4 weeks, as set forth in Table 1 below. Observations were made on changes in body weight and food intake, with respect to a time course of administration. After administration was complete, biochemical indices were assayed including changes in adipose tissue distribution, hepatic functions, and lipid and enzyme levels.

Assay [2] can be described thus: Biochemical indices in the blood of C57BL/6 mice after administration. The class given is in vivo. To be noted: oral, 28 days; Example 14 195 mg/kg, Example 5 65 mg/kg; compared to control group; FIG. 4. The protocol: as §1, §2
FIGS. 4 and 5 show changes of biochemical indices in the blood of C57BL/6 mice to which the prodrug composition of Example 5 and the prodrug composition of Example 14 were administered.

In the case of `CC(=O)Oc1c2c(c3ccccc3c1OC(C)=O)OC(C)(C)CC2` [Example 5, 5,6-diacetoxy-2,2-dimethyl-3,4-dihydro-2H-benzo[h]chromene], in assay [1], the “body weight (g)” value is listed as “excellent weight-loss effects” and the “body weight gain (%)” value is given as “negative (−) value”. The “blood levels of GOT/GTP enzymes” value in assay [2] is “decreased”.
For “10,11-diacetoxy-2,6,6-trimethyl-1,2,6,7,8,9-hexahydro-phenanthro[1,2b]furan [Example 14]”, in assay [1], the “body weight (g)” value was “significant reductions” and the “body weight gain (%)” value is “significant reductions”. Also, the “blood levels of GOT/GTP enzymes” value in assay [2] was “decreased”.
